From patent publication US4234511A, “Dialkylamino-N,N-bis(phosphonoalkylene)alkylamines and use in aqueous systems as precipitation and corrosion inhibitors” (Buckman Laboratories, Inc., priority 1979, dated 1980)
Structures can show the parent of a compound that is named as a salt.

Key:
[1] = Calcium Carbonate Antiprecipitation Tests; details: pH 9, 25° C., approx. 18 hours
Method: To evaluate the effect of the compounds of the present invention on the precipitation of calcium carbonate, measured volume of stock solution (prepared with demineralized water) of the phosphonic acids or their reaction product with epichlorohydrin were added to 100-ml portions of a calcium hydroxide solution (0.40 g Ca(OH)2 per liter). Then 100 ml of a sodium bicarbonate solution (0.50 g NaHCO3 per liter) was added to each portion of calcium hydroxide solution. The pH of each portion was adjusted to 9.00 (±0.05). The test solutions were then agitated on a rotary shaker for approximately 18 hours at a temperature of 25° C. At the end of this time insoluble material was removed by filtration with Whatman No. 4 filter paper and the calcium ion concentration in the filtrate was determined by titration with a standard ethylenediamine tetraacetic acid solution. The percent inhibition (Table 1) was calculated by comparing the test solution values with two controls included in every test series.

[2] = Corrosion inhibition, circulating Memphis tap water with mild steel coupons; details: initial pH 7.5, 50° C., three days
Method: The test apparatus included a sump, a flow circuit, a circulating pump and a heater. […] The test fluid was Memphis tap water with the pH adjusted to 7.5 and the temperature was maintained at 50° C.±2° C.
The test fluid containing various concentrations of the compositions described herein was circulated continuously through the system containing the test coupons for a period of three days. At the end of this period, the coupons were removed, cleaned and weighed. The corrosion rates were calculated in milligrams per square decimeter per day (MDD).

Row | Compound | Inhibition of Calcium Carbonate Precipitation, percent inhibition ([1]; 1.0 parts per million) [%] | Inhibition of Calcium Carbonate Precipitation, percent inhibition ([1]; 2.0 parts per million) [%] | Inhibition of Calcium Carbonate Precipitation, percent inhibition ([1]; 3.0 parts per million) [%] | Inhibition of Calcium Carbonate Precipitation, percent inhibition ([1]; 4.0 parts per million) [%] | Inhibition of Calcium Carbonate Precipitation, percent inhibition ([1]; 5.0 parts per million) [%] | Inhibition of Calcium Carbonate Precipitation, percent inhibition ([1]; 6.0 parts per million) [%] | Inhibition of Calcium Carbonate Precipitation, percent inhibition ([1]; 7.0 parts per million) [%] | Inhibition of Calcium Carbonate Precipitation, percent inhibition ([1]; 8.0 parts per million) [%] | Inhibition of Calcium Carbonate Precipitation, percent inhibition ([1]; 9.0 parts per million) [%] | Inhibition of Calcium Carbonate Precipitation, percent inhibition ([1]; 10.0 parts per million) [%] | Corrosion rate, Average ([2]; 50 parts per million) | Corrosion rate, Copper Couple ([2]; 50 parts per million) | Corrosion rate, Sump 1 ([2]; 50 parts per million) | Corrosion rate, Sump 2 ([2]; 50 parts per million) | Corrosion Inhibition, Percent ([2]; 100 parts per million) [%] | Corrosion rate, Average ([2]; 100 parts per million) | Corrosion rate, Copper Couple ([2]; 100 parts per million) | Corrosion rate, Sump 1 ([2]; 100 parts per million) | Corrosion rate, Sump 2 ([2]; 100 parts per million) | other results
1 | CN(C)CCCN(CP(=O)(O)O)CP(=O)(O)O [A, 3-(N,N-Dimethylamino)-N',N'-bis(phosphonomethyl)propylamine Hydrochloride] | 0 | 0 | 4.2 | 41.6 | 50.9 | 54.5 | 64.1 | 60.6 | 69.4 | 67.5 | 1.51 Miligrams per decimeter per day | 3.01 Miligrams per decimeter per day | 1.33 Miligrams per decimeter per day | 0.18 Miligrams per decimeter per day | 99.5 | 1.24 Miligrams per decimeter per day | 1.06 Miligrams per decimeter per day | 0.89 Miligrams per decimeter per day | 1.77 Miligrams per decimeter per day | Corrosion Inhibition, Percent ([2]; 50 parts per million): 99.4%; Corrosion Inhibition, Percent ([2]; 200 parts per million): 99.2%; Corrosion rate, Average ([2]; 200 parts per million): 2.13 Miligrams per decimeter per day; Corrosion rate, Copper Couple ([2]; 200 parts per million): 3.90 Miligrams per decimeter per day; Corrosion rate, Sump 1 ([2]; 200 parts per million): 1.15 Miligrams per decimeter per day; Corrosion rate, Sump 2 ([2]; 200 parts per million): 1.33 Miligrams per decimeter per day
2 | CN(C)CCN(CP(=O)(O)O)CP(=O)(O)O [F, 2-Dimethylamino-N',N'-bis(phosphonomethyl)ethylamine Hydrochloride] | 6.2 | 17.8 | 32.3 | 35.3 | 49.5 | 55.6 | 65.2 | 69.6 | 77.7 | 78.6 | 35.46 Miligrams per decimeter per day | 40.08 Miligrams per decimeter per day | 12.94 Miligrams per decimeter per day | 53.37 Miligrams per decimeter per day | 99.4 | 1.57 Miligrams per decimeter per day | 1.95 Miligrams per decimeter per day | 1.24 Miligrams per decimeter per day | 1.51 Miligrams per decimeter per day | Corrosion Inhibition, Percent ([2]; 150 parts per million): 99.6%; Corrosion rate, Average ([2]; 150 parts per million): 1.06 Miligrams per decimeter per day; Corrosion rate, Copper Couple ([2]; 150 parts per million): 0.98 Miligrams per decimeter per day; Corrosion rate, Sump 1 ([2]; 150 parts per million): 1.15 Miligrams per decimeter per day; Corrosion rate, Sump 2 ([2]; 150 parts per million): 1.06 Miligrams per decimeter per day
